The record followed here is publication PMC9306661 (British Journal of Pharmacology, 2021).

SMILES strings stand for the structures.

A word on the EC50: it is the concentration giving half of the maximal effect.

The target of one assay is T1, Cel-AVR-14B/GLC-2 (Caenorhabditis elegans, UniProt Q17328+Q17369).
T1 sequence (Q17369 22-430): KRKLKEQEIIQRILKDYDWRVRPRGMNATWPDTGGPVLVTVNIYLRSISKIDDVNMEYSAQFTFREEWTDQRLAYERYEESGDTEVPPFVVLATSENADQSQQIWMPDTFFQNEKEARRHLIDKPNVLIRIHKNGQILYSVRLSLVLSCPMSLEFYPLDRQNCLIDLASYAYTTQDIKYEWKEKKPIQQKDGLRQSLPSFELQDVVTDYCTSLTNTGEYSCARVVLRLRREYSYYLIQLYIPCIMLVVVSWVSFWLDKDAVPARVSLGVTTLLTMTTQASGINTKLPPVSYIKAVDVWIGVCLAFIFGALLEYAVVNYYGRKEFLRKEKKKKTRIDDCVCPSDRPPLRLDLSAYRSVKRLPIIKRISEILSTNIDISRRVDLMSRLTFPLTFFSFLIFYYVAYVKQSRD
T1 sequence (Q17328 23-434): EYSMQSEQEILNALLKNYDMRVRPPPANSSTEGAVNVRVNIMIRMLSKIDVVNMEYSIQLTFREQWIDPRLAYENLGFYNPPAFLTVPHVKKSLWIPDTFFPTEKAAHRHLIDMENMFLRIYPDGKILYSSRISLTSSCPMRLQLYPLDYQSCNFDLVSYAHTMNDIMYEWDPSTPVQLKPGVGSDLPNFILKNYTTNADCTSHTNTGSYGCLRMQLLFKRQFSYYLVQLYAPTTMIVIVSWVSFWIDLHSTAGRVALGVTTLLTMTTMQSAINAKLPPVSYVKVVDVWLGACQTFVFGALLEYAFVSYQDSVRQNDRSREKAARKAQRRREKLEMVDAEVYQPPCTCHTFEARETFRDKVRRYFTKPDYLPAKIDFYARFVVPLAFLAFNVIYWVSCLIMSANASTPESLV
The assay is described as follows: two-electrode voltage clamp, Xenopus oocytes. Format: cell-based. (In general: Two-electrode voltage clamp holds a large cell at a set potential and records current.)

The target in a further assay is T2, Pun-AVR-14B/GLC-2 (Parascaris univalens, UniProt A0A894K7G1+A0A894KE58).
T2 sequence (A0A894K7G1 19-428): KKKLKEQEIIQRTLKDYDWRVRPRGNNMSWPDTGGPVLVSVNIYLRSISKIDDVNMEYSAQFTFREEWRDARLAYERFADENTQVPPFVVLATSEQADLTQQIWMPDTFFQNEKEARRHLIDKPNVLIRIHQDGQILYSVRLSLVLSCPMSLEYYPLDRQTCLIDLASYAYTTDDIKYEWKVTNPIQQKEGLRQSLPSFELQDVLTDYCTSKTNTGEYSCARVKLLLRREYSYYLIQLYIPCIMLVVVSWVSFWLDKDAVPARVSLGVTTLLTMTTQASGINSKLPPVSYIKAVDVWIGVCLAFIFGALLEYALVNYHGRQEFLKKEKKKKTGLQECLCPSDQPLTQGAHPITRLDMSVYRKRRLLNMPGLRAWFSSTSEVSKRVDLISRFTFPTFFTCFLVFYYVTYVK
T2 sequence (A0A894KE58 21-448): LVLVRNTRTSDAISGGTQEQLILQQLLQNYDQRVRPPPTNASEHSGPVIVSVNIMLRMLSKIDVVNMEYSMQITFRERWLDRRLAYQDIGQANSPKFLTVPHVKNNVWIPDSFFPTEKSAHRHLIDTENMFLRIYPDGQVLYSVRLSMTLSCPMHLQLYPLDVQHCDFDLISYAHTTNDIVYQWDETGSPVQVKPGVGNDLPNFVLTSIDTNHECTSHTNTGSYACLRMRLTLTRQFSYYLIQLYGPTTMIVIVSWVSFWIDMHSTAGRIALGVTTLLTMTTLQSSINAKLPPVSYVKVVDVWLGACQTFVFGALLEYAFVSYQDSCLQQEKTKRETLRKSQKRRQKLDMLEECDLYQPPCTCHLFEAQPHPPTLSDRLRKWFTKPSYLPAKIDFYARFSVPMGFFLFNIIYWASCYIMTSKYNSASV
The assay is described as follows: two-electrode voltage clamp, Xenopus oocytes. The format is cell-based.

Take `N[C@@H](CCC(=O)O)C(=O)O` [glutamate]: the figures for the EC50 at Cel-AVR-14B/GLC-2 and at Pun-AVR-14B/GLC-2 were 19.4 µM and 10.9 µM, respectively.
